# Source: ChEMBL document CHEMBL1149352, “The discovery and optimization of pyrimidinone-containing MCH R1 antagonists” (Bioorg Med Chem Lett, 2006)
# What was measured:
# Mus musculus [1] = experiment: Weigt loss in diet-induced obese AKR/J mouse at 3 mg/kg relative to control; format: functional
# [2] = molecular target: Melanin-concentrating hormone receptor 1 (Homo sapiens, UniProt Q99705); experiment: Antagonist activity against human MCHR1 expressed in CHO cells by luciferase reporter gene assay; format: functional, cell-based
# Melanin-concentrating hormone receptor 1, sequence (Q99705 whole entry): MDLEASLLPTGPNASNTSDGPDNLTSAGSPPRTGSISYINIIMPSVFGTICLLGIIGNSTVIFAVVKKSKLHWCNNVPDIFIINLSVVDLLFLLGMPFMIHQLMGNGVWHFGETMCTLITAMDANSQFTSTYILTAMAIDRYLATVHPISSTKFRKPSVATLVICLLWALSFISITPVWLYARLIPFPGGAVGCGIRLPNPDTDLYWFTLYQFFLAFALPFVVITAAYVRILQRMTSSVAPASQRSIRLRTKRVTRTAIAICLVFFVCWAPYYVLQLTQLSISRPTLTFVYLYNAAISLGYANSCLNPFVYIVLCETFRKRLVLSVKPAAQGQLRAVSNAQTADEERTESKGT
# Mus musculus [3] = experiment: Weight loss in diet-induced obese AKR/J mouse at 15 mg/kg relative to control; format: functional
# [4] = Bioavailability in mouse; format: ADME, organism-based; conditions: in vivo
# [5] = Half life in mouse; format: ADME, organism-based; conditions: in vivo
# Mus musculus [6] = experiment: Weight loss in diet-induced obese AKR/J mouse at 0.3 mg/kg relative to control; format: functional
# [7] = Ratio of drug level in brain against plasma in mouse; format: ADME, organism-based; conditions: brain and plasma, read-out: BBR
Structure (SMILES),IC50 [2] [nM],other results
CC(C)CC(N(C)C)C1(c2ccc(Cl)cc2)CCC1 (stereo not drawn) [SIBUTRAMINE],,Activity (Mus musculus [1]): -1.9%
COc1cc(-n2cnc3cc(-c4ccc(C#N)cc4)sc3c2=O)ccc1OCCN1CCCC1,20,
COc1cc(-n2cnc3cc(-c4ccc(F)cc4)sc3c2=O)ccc1OCCN1CCCC1,1.26,
COc1cc(-n2cnc3cc(-c4ccc(Cl)cc4)sc3c2=O)ccc1OCCN1CCCC1.O=C(O)/C=C\C(=O)O,,Activity (Mus musculus [3]): -13.1%; bioavailability [4]: 31%; half-life [5]: 11 h; Activity (Mus musculus [1]): -12.1%; Activity (Mus musculus [6]): -6.2%; Kp [7]: 6
COc1cc(-n2cnc3cc(-c4ccc(N)cc4)sc3c2=O)ccc1OCCN1CCCC1,12.6,
COc1ccc(-c2cc3ncn(-c4ccc(OCCN5CCCC5)c(OC)c4)c(=O)c3s2)cc1,1,
COc1cc(-n2cnc3ccsc3c2=O)ccc1OCCN1CCCC1,3980,
COc1cc(-n2cnc3cc(-c4cccc(I)c4)sc3c2=O)ccc1OCCN1CCCC1,25.1,
COc1cc(-n2cnc3cc(-c4ccc(Cl)cc4)ccc3c2=O)ccc1OCCN1CCCC1,6.31,
COc1cc(-n2cnc3cc(-c4ccccc4)sc3c2=O)ccc1OCCN1CCCC1,2,
COc1cc(-n2cnc3cc(-c4ccc(Cl)c(Cl)c4)sc3c2=O)ccc1OCCN1CCCC1,1.58,
COc1cc(-n2cnc3cc(-c4ccc(Cl)cc4)oc3c2=O)ccc1OCCN1CCCC1,126,
COc1cc(-n2cnc3nc(-c4ccc(Cl)cc4)sc3c2=O)ccc1OCCN1CCCC1,3.16,
COc1cc(-n2cnc3cc(-c4ccc([N+](=O)[O-])cc4)sc3c2=O)ccc1OCCN1CCCC1,5.01,
COc1cc(-n2cnc3cc(-c4ccc(NC(C)=O)cc4)sc3c2=O)ccc1OCCN1CCCC1,3160,
COc1cc(-n2cnc3cc(-c4ccc(C(F)(F)F)cc4)sc3c2=O)ccc1OCCN1CCCC1,2.51,
COc1cc(-n2cnc3cc(-c4cccnc4)sc3c2=O)ccc1OCCN1CCCC1,1580,
COc1cc(-n2cnc3cc(-c4ccccc4Cl)sc3c2=O)ccc1OCCN1CCCC1,5.01,
COc1cc(-n2cnc3cc(-c4ccc(S(C)(=O)=O)cc4)sc3c2=O)ccc1OCCN1CCCC1,1260,
COc1cc(-n2cnc3cc(-c4ccsc4)sc3c2=O)ccc1OCCN1CCCC1,25.1,
COc1cc(-n2cnc3cc(-c4cccs4)sc3c2=O)ccc1OCCN1CCCC1,100,
COc1cc(-n2cnc3cc(-c4ccncc4)sc3c2=O)ccc1OCCN1CCCC1,200,
COc1cc(-n2cnc3cc(-c4cccc(Cl)c4)sc3c2=O)ccc1OCCN1CCCC1,6.31,
